The record followed here is patent publication US20250221408A1, “COMPOSITION” (EARTH CORPORATION, priority 2022, published 2025).

Read-outs that look alike come from different tables or passages of the source. Where only a bound is given, the exact number is not on record here.

Data set [1] is described as follows: Decomposition stability of single perfume component in sodium chlorite/benzalkonium chloride preparation, GC-MS, Example 5. Conditions: for Area change rate (%) / Decomposition stability of additive component: 50° C. for 2 weeks.
Protocol: Next, the prepared preparation was stored at 50° C. for 2 weeks to obtain an aged product. Further, GC-MS of the initial product (preparation before 2 weeks of storage) and the aged product (preparation after 2 weeks of storage) were measured as described below to observe the change in the content of the perfume component (additive component of the present invention).
Each of the preparations was then measured and analyzed by GC-MS according to the method described above.
Further, the peak area measured by GC-MS of each perfume component in the initial product of the preparation of Example 5 was defined as the “initial product area value”, and the peak area measured by GC-MS of each perfume component in the aged product was defined as the “aged product area value”.
A short description of data set [2]: Decomposition stability of perfume components in sodium chlorite/benzalkonium chloride preparation, GC-MS, Examples 1 to 4 (perfume mixtures).
Protocol: Next, the prepared preparation was stored at 500° C. for 2 weeks to obtain an aged product. Further, GC-MS of the initial product (preparation before 2 weeks of storage) and the aged product (preparation after 2 weeks of storage) was measured as described below to observe the change in the content of the perfume components (additive component of the present invention).
An ODS cartridge column (Waters Corporation, trade name SepPAK) was conditioned with the first pass through of 10 mL of methanol and the second pass through of 10 mL of water. 100 mL of a sample solution (preparation prepared in the present example, i.e. the composition of the present invention) was passed through the conditioned column and adsorbed on the column. 3 mL of ethanol was further passed through to elute the composition adsorbed on the column. The elusion was analyzed by GC-MS and the area of the perfume component contained therein was measured. This measurement was performed for each of the initial product (preparation before 2 weeks of storage) and the aged product (preparation after 2 weeks of storage), and the area of the perfume component contained in each was compared.
• Column: InertCap Pure-WAX (trade name of the product manufactured by GL Sciences Inc.), 30 m, inner diameter 0.25 mm, film thickness 0.25 μm • Flow rate: Approximately 40 cm/sec • Column temperature: The temperature is raised at 5° C. per minute from 50° C. to 250° C. • Injection port temperature: 200° C. • Detector temperature: 250° C. • Injection amount: 1 μL • Split ratio: 1:10
Each preparation was then measured and analyzed by GC-MS according to the method described above.
“Area change rate (%)” was calculated from the calculated area values, based on the following Equation [1].
Area change rate (%)=initial product area value/aged product area value×100 [1]
Further, the decomposition stability of the additive components was evaluated in three stages, ∘, Δ and × as described below, according to the area change rate (%).
Data set [3] is described as follows: Lewis acidity measurement method (1): reaction rate constant of CoTPP and oxygen in the presence of Lewis acid. It counts as physicochemical.
[4] abbreviates: perfume component 2 ppm in preparation.
Where [5] appears, read: perfume component 3 ppm in preparation.
[6] abbreviates: perfume component 5 ppm in preparation.
Setting [7] is: perfume component 1 ppm in preparation.
The mark [8] stands for this setting: Examples 1 to 4, aged products after 2 weeks of storage, GC-MS.
[9] abbreviates: perfume component 10 ppm in preparation.
The mark [10] stands for this setting: perfume component 50 ppm in preparation.
Setting [11] is: perfume component 6 ppm in preparation.
Where [12] appears, read: CoTPP and oxygen under the presence of Lewis acid, MeCN, room temperature.

Regarding `CC(C)C12CCC(C)(CC1)O2` [1,4-cineole], in data set [1] (setting [4]), the “Area change rate (%)” value came out at 95%.

For `OCc1ccccc1` [Benzyl alcohol], in data set [1] (setting [5]), the “Area change rate (%)” value amounted to 84% and the “Decomposition stability of additive component” value (from here on “Decomposition stability”) is recorded as “∘ (70% or more)”.

On to `C=C(C)C1CC=C(C)C(=O)C1` (centres unmarked) [Carvone], for which, in data set [1] (setting [6]), the “Area change rate (%)” value came to 98% and the “Decomposition stability” value is recorded as “∘ (70% or more)”.

On to `C=C(C)[C@@H]1CC[C@@H](C)C(=O)C1` [Dihydrocarvone], for which the “Area change rate (%)” value in data set [1] (perfume component 4 ppm in preparation) was 91%.

Turning to `CC1CCC(C(C)(C)O)CC1` (centres unmarked) [Dihydroterpineol], the “Area change rate (%)” value in data set [1] (setting [4]) was 99%.

In the case of `CC12CCC(CC1)C(C)(C)O2` [Eucalyptol], in data set [1] (setting [7]), the “Area change rate (%)” value is 99% and the “Decomposition stability” value is on record as “∘ (70% or more)”.

As to `C=CCc1ccc(O)c(OC)c1` [Eugenol], the “Area change rate (%)” value in data set [1] (setting [6]) turned out to be 97%.

With `C=CC(C)(O)CCC=C(C)C` (centres unmarked) [Linalool, reference compound], the “Fate of perfume component in aged product (in words)” value (from here on “Fate of perfume component”) is recorded as “no peaks were observed” in data set [2] (setting [8]) and “remarkably decreased” in data set [1] (Example 5, aged product after 2 weeks at 50° C., GC-MS). Besides, in data set [1] (setting [6]), the “Area change rate (%)” value stood at 0%.

Consider `Cc1coc2c1CCC(C)C2` (centres unmarked) [Menthofuran, reference compound], for which, in data set [2] (setting [8]), the “Fate of perfume component” value was “no peaks were observed”.

As for `CC1CCC(C(C)C)C(O)C1` (centres unmarked) [Menthol], the “Area change rate (%)” value in data set [1] (setting [6]), in data set [1] (setting [9]) and in data set [1] (setting [10]) was 100% each time. In addition, the “Decomposition stability” value in data set [1] (setting [6]), in data set [1] (setting [9]) and in data set [1] (setting [10]) was “∘ (70% or more)” in each case.

Regarding `CC(C)[C@@H]1CC[C@@H](C)CC1=O` [Menthone], in data set [1] (setting [6]), the “Area change rate (%)” value is given as 75% and the “Decomposition stability” value is reported as “∘ (70% or more)”. Besides, in data set [1] (setting [9]), the “Area change rate (%)” value worked out at 80% and the “Decomposition stability” value was “∘ (70% or more)”.

`CC1=CC(=O)C(C(C)C)CC1` (centres unmarked) [Piperitone]: in data set [1] (setting [11]), the “Area change rate (%)” value is 89% and the “Decomposition stability” value was “∘ (70% or more)”.

For `CC(C)=C1CC[C@@H](C)CC1=O` [Pulegone], in data set [1] (setting [6]), the “Area change rate (%)” value was 100% and the “Decomposition stability” value is “∘ (70% or more)”.

Consider `CC(C)C12CCC(C)(O)C1C2` (centres unmarked) [Thujanol, reference compound], for which the “Fate of perfume component” value in data set [2] was “no peaks were observed”.

As to `Cc1ccc(C(C)C)c(O)c1` [Thymol], in data set [1] (setting [6]), the “Area change rate (%)” value is recorded as 76% and the “Decomposition stability” value was “∘ (70% or more)”.

On to `CC(C)(C)CC(C)(C)c1ccc(OCCOCC[N+](C)(C)Cc2ccccc2)cc1.[Cl-]` [benzetonium chloride, benzethonium chloride], for which the kcat in data set [3] (setting [12]) turned out to be 0.24 M^−2 s^−1.

Turning to `Cc1ccccc1C(C)C` [o-cymene, reference compound], in data set [2] (setting [8]), the “Fate of perfume component” value was “no peaks were observed”.

Regarding `CCCC[N+](CCCC)(CCCC)CCCC.F[P-](F)(F)(F)(F)F` [tetrabutylammonium hexafluorophosphate], in data set [3], the kcat was more than 0.1 M^−2 s^−1.

As for benzalkonium chloride, the kcat in data set [3] (setting [12]) is reported as 0.18 M^−2 s^−1.
